For assay [1], the target named is T1, Polyphosphate kinase-1 (PPK-1, Rv2984) (Mycobacterium tuberculosis, UniProt P9WHV9).
T1 sequence (P9WHV9 1-742): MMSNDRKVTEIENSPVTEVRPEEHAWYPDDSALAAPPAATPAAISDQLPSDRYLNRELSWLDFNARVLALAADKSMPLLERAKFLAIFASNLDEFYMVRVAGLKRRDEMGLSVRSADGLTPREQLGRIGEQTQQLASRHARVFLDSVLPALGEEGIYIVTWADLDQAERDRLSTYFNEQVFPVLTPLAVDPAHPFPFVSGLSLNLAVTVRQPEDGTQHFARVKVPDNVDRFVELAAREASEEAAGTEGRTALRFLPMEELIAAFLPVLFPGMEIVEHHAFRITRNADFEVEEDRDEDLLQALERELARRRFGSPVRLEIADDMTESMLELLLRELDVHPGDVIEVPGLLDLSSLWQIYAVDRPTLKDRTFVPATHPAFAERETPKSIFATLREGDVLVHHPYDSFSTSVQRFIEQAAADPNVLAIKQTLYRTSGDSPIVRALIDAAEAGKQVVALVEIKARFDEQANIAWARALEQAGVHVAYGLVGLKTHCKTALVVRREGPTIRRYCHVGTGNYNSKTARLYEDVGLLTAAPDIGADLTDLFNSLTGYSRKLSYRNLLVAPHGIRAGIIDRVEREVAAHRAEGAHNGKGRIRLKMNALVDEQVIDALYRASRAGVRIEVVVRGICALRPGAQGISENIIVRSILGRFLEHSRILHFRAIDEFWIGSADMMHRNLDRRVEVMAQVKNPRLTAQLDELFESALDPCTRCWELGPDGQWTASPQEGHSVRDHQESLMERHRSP
In words: microscale thermophoresis. The class given is binding. In general terms: MST reads how a fluorescent partner responds to local heating, with and without ligand.

Assay [2] has as its target T1, Polyphosphate kinase-1 (PPK-1, Rv2984). The class given is biochemical.

Counter-ions that a name gives are not always drawn.

What is called Kd is the constant that tells how readily two partners part at equilibrium. A high value points to lower affinity. In turn, `O=C(c1ccc(OCCN2CCCCC2)cc1)c1c(-c2ccc(O)cc2)sc2cc(O)ccc12` [Cpd-11, raloxifene hydrochloride] gave a dissociation constant Kd in assay [1] of 40 µM. Take `O=C1OC2(c3ccccc31)c1ccc(O)c(O)c1Oc1c2ccc(O)c1O` [gallein]: the “inhibition of PPK-1 ATP and polyP synthesis (SI Appendix Fig. S6 A-C)” value in assay [2] is “gallein inhibited both ATP and polyP synthesis activity associated with the PPK-1 homolog from M. tuberculosis”.
